Laboratory results as given in ChEMBL document CHEMBL2163280 (J Med Chem, 2012).
One block for each compound: values may come before it. The source made the active and inactive calls. The rule behind the calls is not given here.

How the values were obtained:
[1] = target: Acetylcholine receptor; alpha1/beta1/delta/gamma (Homo sapiens) (UniProt P02708+P07510+P11230+Q07001); assay: Agonist activity at alpha1betagammadelta nACHR in human TE671/RD cells by 86Rb+ efflux assay; type: functional, cell-based
[2] = target: Neuronal acetylcholine receptor; alpha4/beta2 (Rattus norvegicus, UniProt P09483+P12390); assay: Displacement of [3H]epibatidine from rat alpha4beta2 nACHR; type: protein-complex assay
Sequence of Neuronal acetylcholine receptor; alpha4/beta2 (P09483 whole entry): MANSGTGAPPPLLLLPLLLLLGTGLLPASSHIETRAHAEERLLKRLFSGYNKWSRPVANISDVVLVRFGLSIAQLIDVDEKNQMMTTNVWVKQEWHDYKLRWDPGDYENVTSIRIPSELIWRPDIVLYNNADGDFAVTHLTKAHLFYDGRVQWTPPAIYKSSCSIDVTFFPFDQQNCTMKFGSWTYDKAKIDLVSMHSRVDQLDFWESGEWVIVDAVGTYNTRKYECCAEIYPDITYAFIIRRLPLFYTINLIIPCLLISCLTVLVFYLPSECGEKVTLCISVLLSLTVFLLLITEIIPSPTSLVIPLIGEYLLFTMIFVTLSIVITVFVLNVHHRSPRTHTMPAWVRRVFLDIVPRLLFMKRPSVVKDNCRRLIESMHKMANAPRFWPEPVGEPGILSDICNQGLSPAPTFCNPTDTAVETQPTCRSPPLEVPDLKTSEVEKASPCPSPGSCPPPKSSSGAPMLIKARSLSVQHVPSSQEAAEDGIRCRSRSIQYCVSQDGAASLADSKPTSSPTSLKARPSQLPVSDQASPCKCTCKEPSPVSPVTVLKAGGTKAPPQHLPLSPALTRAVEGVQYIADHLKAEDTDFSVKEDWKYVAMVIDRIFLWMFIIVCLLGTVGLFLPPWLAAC
Sequence of Neuronal acetylcholine receptor; alpha4/beta2 (P12390 whole entry): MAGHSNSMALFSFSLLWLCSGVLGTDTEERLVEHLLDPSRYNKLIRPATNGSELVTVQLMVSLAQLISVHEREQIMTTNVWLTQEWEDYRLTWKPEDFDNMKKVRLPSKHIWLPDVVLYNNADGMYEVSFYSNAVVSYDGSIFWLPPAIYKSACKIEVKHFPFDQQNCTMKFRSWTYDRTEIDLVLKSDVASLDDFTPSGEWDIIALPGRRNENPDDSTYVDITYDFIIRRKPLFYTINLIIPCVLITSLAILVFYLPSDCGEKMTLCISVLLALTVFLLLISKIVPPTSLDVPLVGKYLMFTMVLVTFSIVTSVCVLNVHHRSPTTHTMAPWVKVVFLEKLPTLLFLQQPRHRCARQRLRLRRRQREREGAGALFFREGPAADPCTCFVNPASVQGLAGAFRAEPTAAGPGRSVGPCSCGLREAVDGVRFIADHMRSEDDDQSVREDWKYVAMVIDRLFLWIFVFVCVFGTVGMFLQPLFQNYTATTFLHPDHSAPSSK

[3] = target: Neuronal acetylcholine receptor; alpha4/beta2 (Rattus norvegicus) (UniProt P09483+P12390); assay: Displacement of [3H]epibatidine from rat alpha4beta2 nACHR at 10 uM; type: protein-complex assay
[4] = target: Neuronal acetylcholine receptor; alpha4/beta4 (Rattus norvegicus) (UniProt P09483+P12392); assay: Displacement of [3H]epibatidine from rat alpha4beta4 nACHR at 10 uM; type: protein-complex assay
[5] = target: Neuronal acetylcholine receptor; alpha3/beta4 (Rattus norvegicus) (UniProt P04757+P12392); assay: Displacement of [3H]epibatidine from rat alpha3beta4 nACHR at 10 uM; type: protein-complex assay
Rattus norvegicus = species: Rattus norvegicus; assay: Displacement of [3H]epibatidine from rat forebrain alpha4beta2* nACHR at 10 uM
[6] = tested on: Neuronal acetylcholine receptor alpha2/beta2 rat; assay: Displacement of [3H]epibatidine from rat alpha2beta2 nACHR at 10 uM
[7] = target: Neuronal acetylcholine receptor; alpha3/beta2 (Rattus norvegicus) (UniProt P04757+P12390); assay: Displacement of [3H]epibatidine from rat alpha3beta2 nACHR at 10 uM; type: protein-complex assay
[8] = target: Neuronal acetylcholine receptor; alpha2/beta4 (Rattus norvegicus) (UniProt P12389+P12392); assay: Displacement of [3H]epibatidine from rat alpha2beta4 nACHR at 10 uM; type: protein-complex assay

Compound: CCNC(=O)OCc1cc(OC[C@@H]2CCN2)on1
- Activity [1]: inactive

Compound: OCc1cc(OC[C@@H]2CCN2)on1
- Activity [1]: inactive

Compound: OCc1cc(OC[C@@H]2CCN2)no1
- Activity [1]: inactive

Compound: FCc1cc(OC[C@@H]2CCN2)on1
- Activity [1]: inactive

Compound: Cc1cc([C@@H]2CCCN2C)on1 [ABT-418]
- Ki [2]: 7.4 nM

Compound: Cc1cc(OC[C@@H]2CCN2)no1
- Activity [1]: inactive

- Activity [3]: < 50%
- Activity [4]: < 50%
- Activity [5]: < 50%
- Activity [1]: inactive
- Activity (Rattus norvegicus): < 50%
- Activity [6]: < 50%
- Activity [7]: < 50%
- Activity [8]: < 50%
Compound: c1ccc(OCc2cc(OC[C@@H]3CCN3)no2)cc1

Compound: O=C(NC1CCCC1)OCc1cc(OC[C@@H]2CCN2)on1
- Activity [1]: inactive

Compound: Fc1ccc(NCc2cc(OC[C@@H]3CCN3)on2)cc1
- Activity [1]: inactive
